Experiments:
[1] = Saturation solubility study in ddH2O; type: physicochemical; details: 25°C, 90 minutes; for Saturation & Solubility: 100 rpm, mean ± SD of triplicates, per batch; for saturation solubility (water solubility): independent batches
Description: Determination of Saturation Solubility of Chidamide-HCl, Chidamide-H2SO4, and Celecoxib-Na Salts. Sample of 5 mg of chidamide-HCl, chidamide-H2SO4, or celecoxib-Na salts was added to 5 ml volumetric flasks containing ddH2O and shook at 100 rpm in an incubator at 25°C for 90 minutes. The resulting suspension was filtered through a 0.22 µm filter. The concentrations of chidamide-HCl, chidamide-H2SO4, and celecoxib-Na salts were determined spectrophotometrically at 256 nm, 256 nm, and 253 nm, respectively. The saturation solubility of each sample was determined in triplicates and the mean value and standard deviation were reported. Preparation of standard curves is described as below.

[2] = low solubility and high permeability; cited from earlier work

| Saturation & Solubility [1] | saturation solubility (water solubility) [1] | SMILES | BCS (biopharmaceutical classification system) class [2] |
| --- | --- | --- | --- |
| BDL | water-insoluble | Nc1cc(F)ccc1NC(=O)c1ccc(CNC(=O)/C=C/c2cccnc2)cc1 [Chidamide-API, 4-(((E)-3-(pyridin-3-yl)acrylamido)methyl)-N-(2-amino-4-fluorophenyl)benzamide] |  |
| BDL | water-insoluble | Cc1ccc(-c2cc(C(F)(F)F)nn2-c2ccc(S(N)(=O)=O)cc2)cc1 [Celecoxib-API, 4-[5-(4-Methylphenyl)-3-(trifluoromethyl)pyrazol-1-yl]benzenesulfonamide] | class II |

— patent publication EP4028002B1, “AN ANTICANCER COMBINATION OF CHIDAMIDE AND CELECOXIB” (Great Novel Therapeutics Biotech & Medicals Corporation, priority 2019, dated 2021)
